Source: US20050154230A1, “Urea derivatives” (Bayer HealthCare AG, priority 2001, published 2005)
Where two headings read alike, the source gives them in different places.

How the values were obtained:
[1] = biological target: T1, human VR1 (Homo sapiens, UniProt Q8NER1); assay: Capsaicin-induced Ca2+ influx in the human VR1-transfected CHO cell line (Assay 1); type: cell-based
T1 construct: expressed in transfected cells
Description: [Measurement of Capsaicin-Induced Ca^2+ Influx in the Human VR1-Transfected CHO Cell Line] (Assay 1)
(1) Establishment of the Human VR1-CHOluc9aeq Cell Line
The cloned hVR1 cDNA was constructed with pcDNA3 vector and transfected into a CHOluc9aeq cell line. The cell line contains aequorin and CRE-luciferase reporter genes as read-out signals. The transfectants were cloned by limiting dilution in selection medium (DMEM/F12 medium (Gibco BRL) supplemented with 10% FCS, 1.4 mM Sodium pyruvate, 20 mM HEPES, 0.15% Sodium bicarbonate, 100 U/ml penicillin, 100 μg/ml streptomycin, 2 mM glutamine, non-essential amino acids and 2 mg/ml G418). Ca^2+ influx was examined in the capsaicin-stimulated clones. […] The human VR1-CHOluc9aeq cells were maintained in the selection medium and passaged every 3-4 days at 1-2.5×10^5 cells/flask ([…]).
(2) Measurement of Ca^2+ Influx Using FDSS-3000
Human VR1-CHOluc9aeq cells were suspended in a culture medium which is the same as the selection medium except for G418 and seeded at a density of 1,000 cells per well into 384-well plates (black walled clear-base/Nalge Nunc International). […] After washing twice with assay buffer the cells were incubated with a test compound or vehicle for 20 min at 25° C. […] Integral R was calculated and compared with controls.

[2] = human VR1-CHOluc9aeq cells, 10 nM capsaicin, compound purity about 40 to 90%, read-out: hVR1 class

T1 sequence (Q8NER1 whole entry): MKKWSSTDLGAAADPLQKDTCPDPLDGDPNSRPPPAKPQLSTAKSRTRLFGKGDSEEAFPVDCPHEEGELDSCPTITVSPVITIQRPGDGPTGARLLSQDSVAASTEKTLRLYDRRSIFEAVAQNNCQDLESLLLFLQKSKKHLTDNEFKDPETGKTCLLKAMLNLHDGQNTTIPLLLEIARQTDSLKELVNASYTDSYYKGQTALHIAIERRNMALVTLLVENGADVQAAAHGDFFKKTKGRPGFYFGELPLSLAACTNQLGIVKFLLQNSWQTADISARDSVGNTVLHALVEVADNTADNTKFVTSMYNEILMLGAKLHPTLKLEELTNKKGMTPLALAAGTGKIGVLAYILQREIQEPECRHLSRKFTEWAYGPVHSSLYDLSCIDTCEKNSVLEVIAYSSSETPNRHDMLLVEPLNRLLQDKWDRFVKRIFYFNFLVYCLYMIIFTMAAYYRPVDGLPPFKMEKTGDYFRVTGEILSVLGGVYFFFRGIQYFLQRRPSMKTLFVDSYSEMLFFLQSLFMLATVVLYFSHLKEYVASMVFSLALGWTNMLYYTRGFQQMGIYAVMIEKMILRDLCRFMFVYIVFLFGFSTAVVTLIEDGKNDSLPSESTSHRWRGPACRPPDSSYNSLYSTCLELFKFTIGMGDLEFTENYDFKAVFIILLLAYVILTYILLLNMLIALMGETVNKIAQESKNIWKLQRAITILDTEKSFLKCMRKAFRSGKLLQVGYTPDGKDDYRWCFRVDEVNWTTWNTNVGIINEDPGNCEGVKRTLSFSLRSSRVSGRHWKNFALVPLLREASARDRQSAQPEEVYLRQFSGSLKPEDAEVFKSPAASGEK

| SMILES | IC50 [1, 2] [nM] | melting point | IC50 ([1]; human VR1-CHOluc9aeq cells, 10 nM capsaicin, compound purity about 40 to 90%, read-out: Activity grade) [nM] | IC50 [1] [nM] |
| --- | --- | --- | --- | --- |
| Cc1cccc(NC(=O)NCc2ccc(C(F)(F)F)cc2)c1CCO [Example 258] | < 100 | 213 °C | – | – |
| O=C(Nc1ccccc1CCO)Nc1ccccc1C(F)(F)F [Example 152] | 500 to 1000 | 180 to 182 °C | – | – |
| O=C(Nc1cc(Cl)nc(Cl)c1)Nc1ccccc1CCO [Example 154] | 500 to 1000 | 194 °C | – | – |
| Cc1cccc(NC(=O)Nc2ccc(Cl)c(C(F)(F)F)c2)c1CCO [Example 256] | < 100 | 201 °C | – | – |
| O=C(Nc1cccc(-c2cccc([N+](=O)[O-])c2)c1)Nc1ccccc1CCO [Example 234] | < 100 | 188 °C | – | – |
| COc1cccc(NC(=O)Nc2ccccc2CCO)c1 [Example 135] | 500 to 1000 | 169 °C | – | – |
| O=C(Nc1cc(F)c(F)cc1F)Nc1ccccc1CCO [Example 183] | 500 to 1000 | 172 to 174 °C | – | – |
| O=C(Nc1ccc(Cl)cc1)Nc1ccccc1CCO [Example 106] | 500 to 1000 | 185 to 187 °C | – | – |
| O=C(Nc1cccc(-c2cccnc2)c1)Nc1ccccc1CCO [Example 212] | 500 to 1000 | 178.9 °C | – | – |
| COc1cc(CNC(=O)Nc2cccc(C)c2)ccc1O [Example 82] | – | 181 °C | – | 100 to 500 |
| COC(=O)c1ccccc1NC(=O)Nc1ccccc1CCO [Example 118] | 500 to 1000 | 128 °C | – | – |
| CC(NC(=O)Nc1ccccc1CCO)c1cccc2ccccc12 (centres unmarked) [Example 155] | 500 to 1000 | 176 °C | – | – |
| O=C(Nc1cccc(-c2ccc(OCc3ccccc3)c(F)c2)c1)Nc1ccccc1CCO [Example 236] | < 100 | 181 to 182 °C | – | – |
| O=C(NCc1ccc(F)cc1)Nc1ccccc1CCO [Example 121] | 500 to 1000 | 165 to 167 °C | – | – |
| N#Cc1ccc(-c2cccc(NC(=O)Nc3ccccc3CCO)c2)cc1 [Example 230] | < 100 | 180 to 182 °C | – | – |
| CCOC(=O)c1ccc(-c2cccc(NC(=O)Nc3ccccc3CCO)c2)cc1 [Example 225] | < 100 | 196 °C | – | – |

| SMILES | IC50 [1, 2] [nM] | melting point | IC50 ([1]; human VR1-CHOluc9aeq cells, 10 nM capsaicin, compound purity about 40 to 90%, read-out: Activity grade) [nM] | IC50 [1] [nM] |
| --- | --- | --- | --- | --- |
| O=C(Nc1cc([N+](=O)[O-])ccc1F)Nc1ccccc1CCO [Example 112] | 500 to 1000 | 183 °C | – | – |
| O=C(Nc1cccc(-c2cccc(C(F)(F)F)c2)c1)Nc1ccccc1CCO [Example 238] | < 100 | 180 °C | – | – |
| O=C(Nc1cccc(-c2ccoc2)c1)Nc1ccccc1CCO [Example 247] | < 100 | 190 °C | – | – |
| COc1cc(CNC(=O)Nc2ccc(F)cc2)ccc1O [Example 56] | 500 to 1000 | 211 to 212 °C | – | – |
| COc1cc(CNC(=O)Nc2ccc(Cl)c(Cl)c2)ccc1O [Example 71] | < 100 | 207 °C | – | – |
| O=C(Nc1ccc2c(c1)OCO2)Nc1ccccc1CCO [Example 220] | 500 to 1000 | 183 to 184 °C | – | – |
| O=C(Nc1cccc(-c2cc(Cl)ccc2Cl)c1)Nc1ccccc1CCO [Example 209] | < 100 | 142 °C | – | – |
| O=C(Nc1ccc(Cl)c(-c2ccccc2)c1)Nc1ccccc1CCO [Example 202] | 100 to 500 | 185 °C | – | – |
| O=C(Nc1cccc(-c2ccc(F)c(F)c2)c1)Nc1ccccc1CCO [Example 207] | < 100 | 181 °C | – | – |
| COc1cc2c(cc1O)CN(C(=O)Nc1ccc(Cl)c(C(F)(F)F)c1)CC2 [Example 78] | – | 130 °C | – | – |
| COc1cc2c(cc1O)CN(C(=O)Nc1ccc(Cl)c(C(F)(F)F)c1)CC2 [Example 69] | 100 to 500 | – | – | – |
| CCOC(=O)c1ccc(NC(=O)Nc2ccccc2CCO)cc1 [Example 163] | 500 to 1000 | – | – | – |
| CN(C)S(=O)(=O)c1ccc2c(c1)CN(C(=O)Nc1ccc(Oc3ccccc3)cc1)CC2 [Example 88] | 500 to 1000 | – | – | – |
| CN(C)c1ccc(-c2cccc(NC(=O)Nc3ccccc3CCO)c2)cc1 [Example 170] | < 100 | – | – | – |
| CS(=O)(=O)Nc1ccc2c(c1)CN(C(=O)Nc1ccc(Oc3ccccc3)cc1)CC2 [Example 91] | 500 to 1000 | – | – | – |
| COc1cc(CNC(=O)Nc2cccc(Cl)c2)ccc1O [Example 81] | < 100 | – | – | – |

Further lines, with some results ahead:

| IC50 [1, 2] [nM] | melting point | IC50 ([1]; human VR1-CHOluc9aeq cells, 10 nM capsaicin, compound purity about 40 to 90%, read-out: Activity grade) [nM] | SMILES | IC50 [1] [nM] |
| --- | --- | --- | --- | --- |
| < 100 | 205 °C | – | CC(=O)c1ccc(-c2cccc(NC(=O)Nc3ccccc3CCO)c2)cc1 [Example 224] | – |
| 100 to 500 | 130 °C | – | COc1ccccc1-c1cccc(NC(=O)Nc2ccccc2CCO)c1 [Example 205] | – |
| < 100 | 150 °C | – | O=C(Nc1cccc(-c2cc(F)ccc2F)c1)Nc1ccccc1CCO [Example 213] | – |
| 500 to 1000 | 186 °C | – | Cc1cccc(NC(=O)Nc2ccccc2CCO)c1 [Example 129] | – |
| 500 to 1000 | 162 to 164 °C | – | O=C(Nc1ccc(F)c(F)c1)Nc1ccccc1CCO [Example 179] | – |
| < 100 | 182 to 183 °C | – | O=C(Nc1ccccc1CCO)Nc1cccc2c1Cc1ccccc1-2 [Example 253] | – |
| < 100 | 180 °C | – | O=C(Nc1cccc(-c2ccc(Cl)c(Cl)c2)c1)Nc1ccccc1CCO [Example 216] | – |
| < 100 | 209 °C | – | O=C(Nc1ccc(Cl)c(C(F)(F)F)c1)Nc1cccc(Br)c1CCO [Example 255] | – |
| 500 to 1000 | 133 °C | – | COc1cccc(NC(=O)NCc2ccc(O)c(OC)c2)c1 [Example 34] | – |
| 100 to 500 | 185 to 187 °C | – | O=C(Nc1cccc(-c2ccccc2Cl)c1)Nc1cc(C(F)(F)F)ccc1CCO [Example 233] | – |
| 100 to 500 | 164 to 166 °C | – | O=C(Nc1ccc(Cc2ccccc2)cc1)Nc1ccccc1CCO [Example 158] | – |
| 500 to 1000 | 186 °C | – | COc1ccc(NC(=O)Nc2ccccc2CCO)cc1 [Example 136] | – |
| 100 to 500 | 201 °C | – | O=C(Nc1ccc(Cl)c(C(F)(F)F)c1)Nc1cccc(C(F)(F)F)c1CCO [Example 254] | – |
| < 100 | 186 to 187 °C | – | N#Cc1cccc(-c2cccc(NC(=O)Nc3ccccc3CCO)c2)c1 [Example 232] | – |
| < 100 | 169 °C | – | O=C(Nc1cccc(-c2ccc(F)cc2F)c1)Nc1ccccc1CCO [Example 199] | – |
| 100 to 500 | 191 to 193 °C | – | O=C(Nc1cccc(-c2ccccc2Cl)c1)Nc1ccc(Cl)cc1CCO [Example 245] | – |
| < 100 | 145 to 146 °C | – | O=C(Nc1cccc(Oc2ccccc2)c1)Nc1ccccc1CCO [Example 171] | – |

| IC50 [1, 2] [nM] | melting point | IC50 ([1]; human VR1-CHOluc9aeq cells, 10 nM capsaicin, compound purity about 40 to 90%, read-out: Activity grade) [nM] | SMILES | IC50 [1] [nM] |
| --- | --- | --- | --- | --- |
| 500 to 1000 | 209 to 211 °C | – | O=C(Nc1cccc(-c2ccc(Cl)cc2)c1)Nc1ccc(Cl)cc1CCO [Example 246] | – |
| 500 to 1000 | 175 to 177 °C | – | COc1ccc(CNC(=O)Nc2ccccc2CCO)cc1 [Example 127] | – |
| 500 to 1000 | 178 °C | – | Nc1ccc2c(c1)C(NC(=O)Nc1ccc(Cl)c(C(F)(F)F)c1)CCC2 (centres unmarked) [Example 96] | – |
| 500 to 1000 | 148 to 150 °C | – | Cc1cccc(CNC(=O)Nc2ccccc2CCO)c1 [Example 124] | – |
| < 100 | 133 °C | – | CCOC(=O)c1cccc(-c2cccc(NC(=O)Nc3ccccc3CCO)c2)c1 [Example 226] | – |
| < 100 | 178 °C | – | Cc1ccc(-c2cccc(NC(=O)Nc3ccccc3CCO)c2)cc1 [Example 200] | – |
| 500 to 1000 | 178 °C | – | O=C(Nc1ccc([N+](=O)[O-])cc1)Nc1ccccc1CCO [Example 110] | – |
| < 100 | 158 to 161 °C (dec.) | – | O=C(Nc1ccc(F)c(C(F)(F)F)c1)Nc1ccccc1CCO [Example 184] | – |
| < 100 | 198 °C | – | O=C(Nc1cccc(-c2ccc(C(F)(F)F)cc2)c1)Nc1ccccc1CCO [Example 222] | – |
| 500 to 1000 | 208 °C | – | COc1cc(CNC(=O)Nc2cc([N+](=O)[O-])ccc2F)ccc1O [Example 65] | – |
| 100 to 500 | 188 to 189 °C | – | O=C(Nc1cc(F)cc(F)c1)Nc1ccccc1CCO [Example 180] | – |
| 100 to 500 | 195 to 197 °C | – | O=C(Nc1ccc2ccccc2c1)Nc1ccccc1CCO [Example 102] | – |
| < 100 | 159 °C | – | O=C(Nc1ccc(-c2ccccc2)s1)Nc1ccccc1CCO [Example 243] | – |
| – | 153.4 °C | < 100 | COc1cc(CNC(=O)Nc2cccc(-c3ccc(Cl)cc3)c2)ccc1O [Example 2-1, N-(4′-chloro-1,1′-biphenyl-3-yl)-N′-(4-hydroxy-3 methoxybenzyl)urea] | – |
| – | 201 °C | – | O=C(Nc1ccc(Cl)c(C(F)(F)F)c1)NC1CCCc2ccc(O)cc21 (centres unmarked) [Example 54] | – |
| 500 to 1000 | – | – | O=C(Nc1ccccc1CCO)Nc1ccc(Cl)cc1C(F)(F)F [Example 143] | – |
| 500 to 1000 | – | – | COc1cc2c(cc1OC)CN(C(=O)Nc1cccc(SC)c1)CC2 [Example 20] | – |
